Reference: patent US10047341B2, “Generation of keratinocytes from pluripotent stem cells and maintenance of keratinocyte cultures” (FUJIFILM Cellular Dynamics, Inc., priority 2014, dated 2018)
“Also recorded” adds a separate entry of the source.

Columns and labels:
[1] = system: human ESC/iPSCs; assay: iKCs derivation from human ESC/iPSCs: critical medium components; type: cell-based; details: for K14 expression with different fibroblast growth factors: anti-K14 immunofluorescence
[2] = system: primary keratinocytes cultured in KCM4; type: cell-based, human; details: Passage 3 keratinocytes in KCM4, 1.5 mM Ca^2+ for 3 days
Method: Keratinocytes were cultured in KCM4 and at 80%-90% confluence, cells were either treated with 1.5 mM Ca^2+ for 3 days or fixed (no calcium control). Cells were assessed by immunocytochemistry for expression of differentiation markers Kl, Loricrin, and Filaggrin using polyclonal rabbit antibodies (Covance).

[3] = system: primary human keratinocytes; assay: Long-term culture of primary keratinocytes (population doubling); details: for life span and stemness of primary keratinocytes in culture: niacinamide 3 mM, BMP4 0.5 ng/mL as components of KCM4; for keratinocyte growth: KCM1 with IGF or insulin 0-10 μg/mL
Method: Keratinocytes were maintained in the indicated medium and passaged every 4-5 days (at ˜80% confluence). For passage, keratinocytes were incubated with a 0.1% Trypsin in Versene solution at 37° C. for 5 minutes. The trypsin was neutralized with 0.5 mg/mL of trypsin inhibitor. The cells were centrifuged at 1200 rpm for 4 min. Cells were counted with a Cellometer (Nexcelom). Cells (25,000-50,000) were plated per well of 6-well plates in the indicated keratinocyte culture media. Media was changed every other day.
Cells were maintained by serial passage at ˜80% confluence until senescence. The total number of cell doublings for each passage was calculated using the following formula: 3.32 log(N/No). Where No refers to the number of cells plated at the beginning of each passage and N is the number of cells recovered at the end of each passage.

[4] = system: primary human keratinocytes; assay: Morphology analysis of primary keratinocytes; type: cell-based
[5] = system: primary human keratinocytes; assay: Colony formation assay (CFA) of primary keratinocytes; type: cell-based; details: for performance in CFA: KCM1 supplemented with either IGF or insulin, CFA in KCM1 (10 μg/mL insulin), 12 days
Method: Cells were plated at low density (250 cells/well of a 6-well plate) and allowed to grow for 8-12 days. For FIGS. 7 and 8, cells were switched from the indicated culture medium to KCM1 (10 μg/mL insulin) at the beginning of the CFA. Keratinocytes were cultured in KCM1 (10 μg/mL insulin) for 12 days and colony size was measured. For FIGS. 9, 10, and 12, the CFAs were performed with the medium used for maintaining the keratinocytes. KCM4 needed to be supplemented with 5 μg/mL insulin to support colony growth. Colonies were allowed to grow for 8 days and colony size was measured. Following culture, plates were fixed and stained with Hoechst stain. The whole plate was imaged at 40× with an ImageXpress high content imager (Molecular Devices). The total number of colonies per well was counted and the size of each colony was measured using ImageJ software. Colony counts are shown in bar graphs where bar height represents the average number of colonies/well for each passage and the error bars represent the standard deviation. Colony sizes are presented in box and whisker plots where the center line represents the median, the box represents the inter-quartile range and the whiskers represent the 5-95 percentile. Data that fall outside this range are plotted individually.

[6] = Passage 0, Day 14 differentiation culture, phase-contrast
[7] = Passage 0, Day 14 differentiation culture
[8] = KCM1, IGF and low concentrations of insulin (0.05 μg/mL and 0 μg/mL)

## Cc1cccc(-c2[nH]ncc2-c2ccc3ncccc3n2)n1 [TGFRKi, TGFβ RI Kinase Inhibitor II, reference compound]
[1]; [6]
  iKCs derivation when component is left out of the media: iKCs cannot be derived efficiently

## [Ca+2] [calcium]
[1]; 1 mM
  differentiation at too high medium level of component: simple epithelial progenitors would not further differentiate into keratinocytes
[2]
  expression of differentiation markers Keratin 1, Loricrin, and Filaggrin: Expression of all three differentiation markers was detected

## NC(=O)c1cccnc1 [niacinamide, reference compound]
[1]; [6]
  differentiation when concentration of component is not sufficient: the differentiation process was incomplete
[3]
  life span and stemness of primary keratinocytes in culture: maintained the stemness of primary keratinocyte stem cells in culture
[3]; listed as Niacinamide
  life span and stemness of primary keratinocytes in culture: extend the life span of primary keratinocytes in culture
[4]; primary keratinocytes cultured in the indicated medium
  cell size: made the cells smaller

## EGF: epidermal growth factor (NSDSECPLSHDGYCLHDGVCMYIEALDKYACNCVVGYIGERCQYRDLKWWELR; UniProt P01133 971-1023, looked up)
[1]; [6]
  differentiation when concentration of component is not sufficient: the differentiation process was incomplete

## FGF1: acidic fibroblast growth factor
[1]; [7]
  K14 expression with different fibroblast growth factors: efficiently direct cells to express mature keratinocyte marker K14

## FGF2: fibroblast growth factor FGF2
[1]; [7]
  K14 expression with different fibroblast growth factors: did not promote homogeneous K14 expression

## IGF: IGF1 growth factor, medium supplement (10 ng/mL)
[5]
  performance in CFA: performed similarly
[3]
  keratinocyte growth: support human neonatal foreskin primary keratinocyte growth
[4]; [8]
  morphology at later passages (p6): smaller and appear to be more tightly attached to each other

## VEGF
[5]; VEGF 25 ng/mL added to KCM4
  effect in CFA in later passages: Positive effect
[3]; VEGF 25 ng/mL added to KCM4
  proliferative potential in long-term culture: increase the proliferative potential of keratinocytes; also recorded: increased the proliferative potential of primary keratinocytes
[4]; VEGF 25 ng/mL added to KCM4
  morphology after addition of VEGF: did not show any morphological differences

## insulin: insulin, medium supplement (0-10 μg/mL)
[5]
  performance in CFA: performed similarly
[3]
  keratinocyte growth: grew well at all concentrations
[3]; listed as Insulin
  keratinocyte growth: support human neonatal foreskin primary keratinocyte growth
[4]; [8]
  morphology at later passages (p6): smaller and appear to be more tightly attached to each other
[4]; KCM1, high concentrations of insulin (1 μg/mL and higher)
  morphology at later passages (p6): many larger, differentiated cells
